Measured values taken from patent US20210395256A1, “TYROSINE KINASE INHIBITORS, COMPOSITIONS AND METHODS THERE OF” (Betta Pharmaceuticals Co., Ltd., priority 2018, published 2021).

Target: TrkA kinase (Homo sapiens, UniProt P04629)
Test: TrkA kinase assay (mobility shift assay)
Type: biochemical
Conditions: class symbols; read-out: Trk A Kinase IC50
Procedure, shortened: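 Ten-point compound series was preincubated 10 min at room temperature with TrkA, then FAM-peptide plus ATP added in HEPES pH 7.5/Brij-35 buffer and reacted at 28 °C before EDTA quench.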

Chain of TrkA kinase (P04629 33-796): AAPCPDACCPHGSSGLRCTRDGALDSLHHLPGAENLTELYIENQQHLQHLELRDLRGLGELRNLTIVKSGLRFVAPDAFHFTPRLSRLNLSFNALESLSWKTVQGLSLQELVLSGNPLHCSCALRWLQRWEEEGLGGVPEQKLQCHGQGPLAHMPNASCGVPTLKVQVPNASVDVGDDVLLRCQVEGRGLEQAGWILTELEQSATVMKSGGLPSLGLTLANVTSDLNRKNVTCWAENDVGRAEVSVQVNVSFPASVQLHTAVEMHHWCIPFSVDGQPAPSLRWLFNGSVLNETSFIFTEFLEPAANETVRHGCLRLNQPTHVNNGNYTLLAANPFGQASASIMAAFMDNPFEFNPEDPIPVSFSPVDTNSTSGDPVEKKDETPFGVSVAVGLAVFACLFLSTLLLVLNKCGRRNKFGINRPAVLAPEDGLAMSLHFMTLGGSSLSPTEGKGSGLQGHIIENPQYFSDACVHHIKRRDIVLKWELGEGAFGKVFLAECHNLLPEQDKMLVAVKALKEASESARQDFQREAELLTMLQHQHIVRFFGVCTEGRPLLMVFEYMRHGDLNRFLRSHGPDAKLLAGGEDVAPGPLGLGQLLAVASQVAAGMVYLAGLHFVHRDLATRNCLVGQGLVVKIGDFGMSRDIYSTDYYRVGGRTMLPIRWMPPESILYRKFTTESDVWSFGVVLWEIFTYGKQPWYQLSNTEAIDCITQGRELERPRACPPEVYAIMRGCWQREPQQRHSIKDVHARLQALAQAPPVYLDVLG

Compound	IC50 [nM]
CN(C)CCN(C)c1cc2[nH]c(-c3cnn4ccc(N5CCC[C@@H]5c5cc(F)ccc5F)nc34)nc2cc1C#N [Compound 168, (R)-2-(5-(2-(2,5-difluorophenyl)pyrrolidin-1-yl)pyrazolo[1,5-a]pyrimidin-3-yl)-6-((2-(dimethylamino)ethyl)(methyl)amino)-1H-benzo[d]imidazole-5-carbonitrile]	≤ 10
CS(=O)(=O)c1ccc2nc(-c3cnn4ccc(N5CCC[C@@H]5c5cc(F)ccc5F)nc34)[nH]c2c1 [Compound 170, (R)-5-(2-(2,5-difluorophenyl)pyrrolidin-1-yl)-3-(6-(methylsulfonyl)-1H-benzo[d]imidazol-2-yl)pyrazolo[1,5-a]pyrimidine]	≤ 10
COc1cc2oc(-c3cnn4ccc(N5CCC[C@@H]5c5cc(F)ccc5F)nc34)nc2cc1C#N [Compound 174, (R)-2-(5-(2-(2,5-difluorophenyl)pyrrolidin-1-yl)pyrazolo[1,5-a]pyrimidin-3-yl)-6-methoxybenzo[d]oxazole-5-carbonitrile]	≤ 10
COC(=O)c1ccc(F)c2nc(-c3cnn4ccc(N5CCC[C@@H]5c5cc(F)ccc5F)nc34)oc12 [Compound 175, methyl (R)-2-(5-(2-(2,5-difluorophenyl)pyrrolidin-1-yl)pyrazolo[1,5-a]pyrimidin-3-yl)-4-fluorobenzo[d]oxazole-7-carboxylate]	≤ 10
N#Cc1cc2nc(-c3cnn4ccc(N5CCC[C@@H]5c5cc(F)ccc5F)nc34)oc2cc1OC(F)(F)F [Compound 176, (R)-2-(5-(2-(2,5-difluorophenyl)pyrrolidin-1-yl)pyrazolo[1,5-a]pyrimidin-3-yl)-6-(trifluoromethoxy)benzo[d]oxazole-5-carbonitrile]	10 to 50
COC(=O)c1cc2oc(-c3cnn4ccc(N5CCC[C@@H]5c5cc(F)ccc5F)nc34)nc2cc1OC [Compound 178, methyl (R)-2-(5-(2-(2,5-difluorophenyl)pyrrolidin-1-yl)pyrazolo[1,5-a]pyrimidin-3-yl)-5-methoxybenzo[d]oxazole-6-carboxylate]	≤ 10
Cc1cc2nc(-c3cnn4ccc(N5CCC[C@@H]5c5cc(F)ccc5F)nc34)oc2cc1OC(F)F [Compound 179, (R)-6-(difluoromethoxy)-2-(5-(2-(2,5-difluorophenyl)pyrrolidin-1-yl)pyrazolo[1,5-a]pyrimidin-3-yl)-5-methylbenzo[d]oxazole]	10 to 50
COc1cc2oc(-c3cnn4ccc(N5CCC[C@@H]5c5cc(F)ccc5F)nc34)nc2cc1CN1CCC[C@H]1C(=O)O [Compound 180, ((2-(5-((R)-2-(2,5-difluorophenyl)pyrrolidin-1-yl)pyrazolo[1,5-a]pyrimidin-3-yl)-6-methoxybenzo[d]oxazol-5-yl)methyl)-L-proline]	> 50
COc1cnc(OC)n2nc(-c3cnn4ccc(N5CCC[C@@H]5c5cc(F)ccc5F)nc34)nc12 [Compound 181, (R)-2-(5-(2-(2,5-difluorophenyl)pyrrolidin-1-yl)pyrazolo[1,5-a]pyrimidin-3-yl)-5,8-dimethoxy-[1,2,4]triazolo[1,5-c]pyrimidine]	10 to 50
COc1cc2nc(-c3cnn4ccc(N5CCC[C@@H]5c5cc(F)ccc5F)nc34)nn2cc1OC [Compound 182, (R)-2-(5-(2-(2,5-difluorophenyl)pyrrolidin-1-yl)pyrazolo[1,5-a]pyrimidin-3-yl)-6,7-dimethoxy-[1,2,4]triazolo[1,5-a]pyridine]	10 to 50
COC(=O)c1ccc2[nH]c(-c3cnn4ccc(N5CCC[C@@H]5c5cc(F)ccc5F)nc34)cc2c1 [Compound 184, methyl (R)-2-(5-(2-(2,5-difluorophenyl)pyrrolidin-1-yl)pyrazolo[1,5-a]pyrimidin-3-yl)-1H-indole-5-carboxylate]	≤ 10
O=C(O)c1ccc2[nH]c(-c3cnn4ccc(N5CCC[C@@H]5c5cc(F)ccc5F)nc34)cc2c1 [Compound 185, (R)-2-(5-(2-(2,5-difluorophenyl)pyrrolidin-1-yl)pyrazolo[1,5-a]pyrimidin-3-yl)-1H-indole-5-carboxylic acid]	≤ 10
Oc1ccc2cc(-c3cnn4ccc(N5CCC[C@@H]5c5cc(F)ccc5F)nc34)[nH]c2c1 [Compound 186, (R)-2-(5-(2-(2,5-difluorophenyl)pyrrolidin-1-yl)pyrazolo[1,5-a]pyrimidin-3-yl)-1H-indol-6-ol]	10 to 50
Fc1ccc(F)c([C@H]2CCCN2c2ccn3ncc(-c4nc5c([nH]4)COCC5)c3n2)c1 [Compound 188, (R)-2-(5-(2-(2,5-difluorophenyl)pyrrolidin-1-yl)pyrazolo[1,5-a]pyrimidin-3-yl)-3,4,6,7-tetrahydropyrano[3,4-d]imidazole]	≤ 10
Fc1ccc(F)c([C@H]2CCCN2c2ccn3ncc(-c4nc5c(s4)CCNC5)c3n2)c1 [Compound 189, (R)-2-(5-(2-(2,5-difluorophenyl)pyrrolidin-1-yl)pyrazolo[1,5-a]pyrimidin-3-yl)-4,5,6,7-tetrahydrothiazolo[4,5-c]pyridine]	≤ 10
Fc1ccc(F)c([C@H]2CCCN2c2ccn3ncc(-c4nc5c(s4)CNCC5)c3n2)c1 [Compound 190, (R)-2-(5-(2-(2,5-difluorophenyl)pyrrolidin-1-yl)pyrazolo[1,5-a]pyrimidin-3-yl)-4,5,6,7-tetrahydrothiazolo[5,4-c]pyridine]	≤ 10
NC(=O)N1CCc2nc(-c3cnn4ccc(N5CCC[C@@H]5c5cc(F)ccc5F)nc34)sc2C1 [Compound 191, (R)-2-(5-(2-(2,5-difluorophenyl)pyrrolidin-1-yl)pyrazolo[1,5-a]pyrimidin-3-yl)-6,7-dihydrothiazolo[5,4-c]pyridine-5(4H)-carboxamide]	10 to 50
Fc1ccc(F)c([C@H]2CCCN2c2ccn3ncc(-c4nc5c(s4)COCC5)c3n2)c1 [Compound 192, (R)-2-(5-(2-(2,5-difluorophenyl)pyrrolidin-1-yl)pyrazolo[1,5-a]pyrimidin-3-yl)-6,7-dihydro-4H-pyrano[4,3-d]thiazole]	10 to 50
COc1cc2nc(-c3c(N)nn4ccc(N5CCC[C@@H]5c5cc(F)ccc5F)nc34)[nH]c2cc1OC [Compound 193, (R)-5-(2-(2,5-difluorophenyl)pyrrolidin-1-yl)-3-(5,6-dimethoxy-1H-benzo[d]imidazol-2-yl)pyrazolo[1,5-a]pyrimidin-2-amine]	≤ 10
COc1cc2nc(-c3c(N)nn4ccc(N5CCC[C@@H]5c5cc(F)ccc5F)nc34)[nH]c2cc1C#N [Compound 194, (R)-2-(2-amino-5-(2-(2,5-difluorophenyl)pyrrolidin-1-yl)pyrazolo[1,5-a]pyrimidin-3-yl)-5-methoxy-1H-benzo[d]imidazole-6-carbonitrile]	≤ 10
COc1cc2[nH]c(-c3cnn4ccc(N5CCC[C@H]5c5cc(F)ccc5F)nc34)nc2cc1C#N [Compound 197, (S)-2-(5-(2-(2,5-difluorophenyl)pyrrolidin-1-yl)pyrazolo[1,5-a]pyrimidin-3-yl)-6-methoxy-1H-benzo[d]imidazole-5-carbonitrile]	10 to 50
COc1cc2[nH]c(-c3cnn4ccc(N5CCC[C@@H]5c5ccc(F)cc5)nc34)nc2cc1C#N [Compound 198, (R)-2-(5-(2-(4-fluorophenyl)pyrrolidin-1-yl)pyrazolo[1,5-a]pyrimidin-3-yl)-6-methoxy-1H-benzo[d]imidazole-5-carbonitrile]	> 50
COc1cc2nc(-c3cnn4ccc(N5CCC[C@@H]5c5cc(F)ccc5F)nc34)cn2cc1OC [Compound 199, (R)-5-(2-(2,5-difluorophenyl)pyrrolidin-1-yl)-3-(6,7-dimethoxyimidazo[1,2-a]pyridin-2-yl)pyrazolo[1,5-a]pyrimidine]	10 to 50
Fc1ccc(F)c([C@H]2CCCN2c2ccn3ncc(-c4nnc5n4CCOC5)c3n2)c1 [Compound 200, (R)-3-(5-(2-(2,5-difluorophenyl)pyrrolidin-1-yl)pyrazolo[1,5-a]pyrimidin-3-yl)-5,6-dihydro-8H-[1,2,4]triazolo[3,4-c][1,4]oxazine]	10 to 50

Same assay, conditions: numeric values; read-out: Trk A Kinase IC50

Compound	IC50 [nM]
N#Cc1cc2nc(-c3cnn4ccc(N5CCC[C@@H]5c5cc(F)ccc5F)nc34)oc2cc1O [Compound 177, (R)-2-(5-(2-(2,5-difluorophenyl)pyrrolidin-1-yl)pyrazolo[1,5-a]pyrimidin-3-yl)-6-hydroxybenzo[d]oxazole-5-carbonitrile]	1.2
Fc1ccc(F)c([C@H]2CCCN2c2ccn3ncc(-c4cc5ccc(F)cc5[nH]4)c3n2)c1 [Compound 183, (R)-5-(2-(2,5-difluorophenyl)pyrrolidin-1-yl)-3-(6-fluoro-1H-indol-2-yl)pyrazolo[1,5-a]pyrimidine]	20.4
O[C@H]1CCn2nc(-c3cnn4ccc(N5CCC[C@@H]5c5cc(F)ccc5F)nc34)nc2C1 [Compound 187, (S)-2-(5-((R)-2-(2,5-difluorophenyl)pyrrolidin-1-yl)pyrazolo[1,5-a]pyrimidin-3-yl)-5,6,7,8-tetrahydro-[1,2,4]triazolo[1,5-a]pyridin-7-ol]	6.6
COc1cc2[nH]c(-c3cnn4ccc(N5CCC[C@@H]5c5ccccc5F)nc34)nc2cc1C#N [Compound 195, (R)-2-(5-(2-(2-fluorophenyl)pyrrolidin-1-yl)pyrazolo[1,5-a]pyrimidin-3-yl)-6-methoxy-1H-benzo[d]imidazole-5-carbonitrile]	2.3
COc1cc2[nH]c(-c3cnn4ccc(N5CCC[C@@H]5c5cccc(F)c5)nc34)nc2cc1C#N [Compound 196, (R)-2-(5-(2-(3-fluorophenyl)pyrrolidin-1-yl)pyrazolo[1,5-a]pyrimidin-3-yl)-6-methoxy-1H-benzo[d]imidazole-5-carbonitrile]	2.6
